Test results as given in patent US8835447B2, “Method for treating androgen receptor positive cancers” (priority 2009, dated 2014).
“Also recorded” adds a separate entry of the source.

Tests used:
[1] = test system: NIH Swiss mice; test: Compound safety in mice, dose escalation; assay type: in vivo; details: three i.p. injections 20x, 50x, 100xIC50 in 3 day intervals
Protocol: Testing of compound safety in mice was done according to an IACUC-approved protocol. The experiment was performed using outbred 8 week old NIH Swiss male mice from Harlan (Indianapolis, Ind.), 4 mice per group. IC50 concentrations were used to calculate in vivo doses based on mouse weight (IC50 in vivo dose equivalent in mg/kg=IC50 in mg/ml×1000, based on the assumption that 1 g of mouse tissues have an approximate volume of 1 ml). The compounds were injected intraperitoneally (i.p.) in 25% DMSO-75% PBS starting from 20×IC50 equivalent of in vitro cytotoxic dose of compounds. […]. The control group of mice received 3 injections of 25% DMSO-75% PBS in intervals of three days. Blood biochemistry analysis was performed by BioReliance (Rockville, Md.).
Five hit compounds, representing both the ARTIS and ARTIK categories (c6, c11, c17, c52 and c85), were selected for in vivo tests based on all of the previous assays. Compound c5 was rejected due to very low microsomal stability (<5% after 1 hour incubation with rat microsomes). The toxicity of the compounds was evaluated in a dose escalation assay in which male NIH Swiss mice (n=4) received three sequential intraperitoneal (i.p.) injections of each compound delivered in 3 day intervals. […]. On the day after the last injection, half of the mice in each group were sacrificed for gross pathology examination and collection of blood for serum biochemistry assays, which include total protein, glucose, bilirubin, and creatinine levels, activity of liver enzymes, and ion concentrations. The remaining mice were sacrificed and evaluated similarly 7 days after the last compound injection. […] A minor decrease in serum glucose concentration (70-80% of control) was observed on the day after the last compound injection in almost all mice, but glucose levels were normal a week later (data not shown). Low serum glucose level might reflect of a weak transient GR-inhibitory effect of the selected compounds.

[2] = test system: AR-expressing PCa cell lines (LNCaP, C4-2, CWR22R); test: Toxicity to AR-expressing PCa cell lines (colony formation / dose-dependent growth inhibition); assay type: cell-based, human
Protocol: (§1) Cell Colony Assay: Cells were plated in 24-well plates at a density allowing 6-7 days of exponential growth before confluency. Medium and compound was replaced every 48 hours to minimize the effect of potential compound instability. After 7 days of incubation in the presence of compound, cells were fixed and stained with methylene blue, followed by extraction of the stain with 1% SDS and spectrophotometry at 650 nm. Each assay was run in triplicate and the difference between control and compound-treated wells was determined using Student's t-test.
Dose-dependent inhibition of cell growth: Cells were plated at 1×10^3 cells per well in 96-well plates. Compounds were added in a dose range from 1 to 20000 nM in two-fold increments. Each dose was tested in triplicate. Controls were 0.1% DMSO (no effect on cell viability) and 50 μM 9-aminoacridine (complete cell death). Cells were incubated for 6 days and then fixed and stained with methylene blue, followed by extraction of the stain with 1% SDS and spectrophotometry at 650 nm. The assay was run two times and, based on the results, the inhibitory concentration of compound suppressing cell growth by 50% as compared to DMSO (IC50) was calculated by the sigmoid approximation method using CalcuSyn software (Biosoft, Chembridge, UK). Confidence intervals were calculated for each sigmoid.
This Example provides a description of the effect of the selected compounds on the growth of PCa cells. To test the toxicity of the identified AR inhibitors towards cells of different origins, we performed colony formation assays using a single dose of each compound (10 μM) on several PCa (LNCaP, C4-2, CWR22R and DU145) and two non-PCa (HT1080 and HeLa) cell lines (FIG. 2A). […] These compounds were not weaker inhibitors of AR transcriptional activity in CWR22R or C4-2 cells than compounds that inhibited growth of the cells. […]

[3] = test system: HT1080, HeLa and DU145 cells; test: Colony formation assay, non-PCa and AR-negative PCa cells; assay type: cell-based, human; details: 10 μM, 7 days
Protocol: as §1
This Example provides a description of the effect of the selected compounds on the growth of PCa cells. To test the toxicity of the identified AR inhibitors towards cells of different origins, we performed colony formation assays using a single dose of each compound (10 μM) on several PCa (LNCaP, C4-2, CWR22R and DU145) and two non-PCa (HT1080 and HeLa) cell lines (FIG. 2A). […] These compounds were not weaker inhibitors of AR transcriptional activity in CWR22R or C4-2 cells than compounds that inhibited growth of the cells.

[4] = test system: CWR22R tumors; test: CWR22R xenograft model in nude mice; assay type: in vivo, mouse; details: for CWR22R tumor growth: five daily i.v. injections, c52 at 18 mg/kg/day
Source text: FIGS. 6A and 6B provide data showing anti-tumor activity of the selected hits in mouse models of androgen-independent PCa. FIG. 6A provides a graphical representation of data obtained from i.p. injection of the listed compounds or DMSO vehicle into nude mice carrying subcutaneous (s.c.) C4-2 tumors. Six daily injections were given starting when tumors were around 100 mm3 in size. There were 4-5 mice per group with two tumors per mouse. Asterisks (*) and number signs (#) are placed under the means of measurement in the c6 and c11 groups respectively which are statistically different from the control group by ANOVA test (>99%) B. C52 (9 mg/kg or 18 mg/kg) or DMSO vehicle was injected into the tail vein of nude mice carrying s.c. CWR22R tumors. Five daily injections were given starting when tumors were around 40 mm3 in size. There were 10 mice per group with one tumor per mouse. Asterisks (*) are placed under the means of measurement which are statistically different from the control group by ANOVA test (>99%). Error bars in both FIGS. 6A and B—standard deviation between the size of tumors within a given treatment group.
Testing of the anti-tumor effect of compounds in mice was done according to an IACUC-approved protocol in 8 week old male athymic nude mice from Harlan (Indianapolis, Ind.). For the C4-2 xenograft model, 10^6 C4-2 cells were injected subcutaneously (s.c.) in 2 sites of each mouse in 50% matrigel (BD Biosciences, Bradford, Mass.) in PBS. Upon development of visible tumors, they were measured using digital caliper. Tumor volume was calculated according to the formula: […]. Mice were injected with compounds i.p. daily for 6 days starting on the day when at least one tumor per mouse reached 100 mm^3 in size. Five mice per group were used. For the CWR22R xenograft model, CWR22R cells were inoculated (10^5 cells per inoculum) in 50% matrigel, one site per mouse. Treatment was started when the tumor grew to a size of at least 25 mm^3. Compounds were diluted in captisol (CyDex, Lenexa, Kans.) and delivered intravenously (to reduce “first pass” liver effect) once a day for 5 days. Ten mice per group were used. Mice were monitored daily and tumors were measured every other day. Mice were euthanized according to institutional regulations when the size of tumor reached 1000 mm^3. Comparison of the tumor growth in control and treated mice was done using ANOVA test.
ARTIK compounds, c52 and c85, were also tested in the CWR22R model.

CCCn1c2ccccc2c2cc(C(C)=O)ccc21 [c52]
toxicity in mice (visual inspection, gross pathology) [1]: generally non-toxic | toxicity towards AR-expressing PCa cell lines ([2]; colony formation, 10 μM, three AR-expressing PCa cell lines): different degrees of toxicity; also recorded: kill all PCa cells expressing AR | degree of toxicity to PCa cells (killing vs reduced growth) ([2]; dose-dependent toxicity, by day 7): kill practically all of the PCa cells in the culture by day 7 | growth of / toxicity towards non-PCa cells or AR-negative PCa cells (DU145) [3]: no toxicity | mice in which tumors completely disappeared ([4]; among 10 mice, 18 mg/kg/day): 2 mice | mice in which tumors did not grow in size ([4]; among 10 mice, 18 mg/kg/day): 5 mice | mice in which tumors regressed ([4]; among 10 mice, 18 mg/kg/day): 1 mouse | adverse side effects ([4]; c52 18 mg/kg/day i.v., 5 days): without any noticeable adverse side effects | CWR22R tumor growth ([4]; 18 mg/kg/day): suppressed growth | CWR22R tumor growth ([4]; listed as C52, 18 mg/kg/day): effective
